Consider 1 compound from patent publication US20250064877A1, “COMPOSITION FOR INCREASING MUSCLE STRENGTH CONTAINING COMPLEX EXTRACT OF ANGELICA KEISKEI AND LEAVES OF MORUS ALBA L” (HAMSOA PHARMACEUTICAL CO., LTD., priority 2022, published 2025).

This experiment concerns MuRF1. Put plainly: Expression of MuRF1 in dexamethasone-induced muscle atrophy rats. It is filed as in vivo, SD rats. The note with it: versus increase induced by dexamethasone; MIX 100 mg/kg, PC 320 mg/kg oral; FIG. 7. The source says:
In the process of treating muscle atrophy, the effects of the composite (extracts) of leaves of mulberry and Angelica keiskei on the expression of MyoD (a factor involved in muscle production) and on the expression of MuRF1 (a factor related to muscle atrophy) were confirmed.

With `CC(C)(O)CC(=O)O` [PC, 3-hydroxy-3-methylbutyric acid], the “expression of MuRF1” value is listed as “tended to decrease”.
